Where a SMILES comes first, the peptide text is derived from it. The star is where a group is joined. Cbz = O=C(OCc1ccccc1)*; CH2Cl = ClC*; CH2F = FC*
What was measured:
anthrax lethal factor = anthrax lethal factor (Bacillus anthracis, UniProt P15917); settings: cited from earlier work
MCF7 breast cancer cells = settings: at 20 μM; cited from earlier work
mitochondrial division = settings: cited from earlier work
[1] = neuron culture medium at 37° C.; cited from earlier work
[2] = tested on: etoposide-induced cortical neuron death; settings: cited from earlier work; for EC50: read-out: ED50 (the source's name)
[3] = administered in rats in vivo; cited from earlier work
whole blood samples [4] = assay: ribosomal 18S DNA duplex real time PCR: increase of DNA in plasma of stored whole blood; format: cell-based, human; settings: for increase of genomic DNA in the plasma (18S DNA duplex assay) / x-fold increase of ribosomal 18S DNA in plasma: within 7 days of storage at RT; for x-fold increase of ribosomal 18S DNA in plasma: 20 μM in 10 ml blood
Method: (§1) A test system was designed, wherein cell-containing biological samples, here whole blood samples, were incubated at room temperature (RT) for up to 6 or 7 days. Therein, the sample stabilizing properties of the additives of the present invention were tested on day 0, day 3 and day 6/7 the samples.
(§2) The circulating, extracellular nucleic acids were purified from the obtained plasma samples using the QIAamp® Circulating NA Kit (according to the handbook). In brief: • 10 ml sample input; • lysis: 1 ml Proteinase K and 8 ml Buffer ACL (QIAGEN) • binding: 18 ml Buffer ACB (QIAGEN) • wash-steps: unchanged and according to handbook • elution in 60 μl Buffer AVE (QIAGEN) 4. Analysis of the Eluates
4.2. DNA quantification with a real time PCR assay, sensitive for DNA degradation (target: 500 and 66 bp long ribosomal 18S DNA coding sequences).
(samples were diluted 1:10 before amplification)
Detection of ribosomal 18S DNA by quantitative real-time PCR, makes it possible to calculate the x-fold increase of DNA from day 0 to day 3 or 7 (calculation: division of day 3 (or 7) copies by day 0 copies).
The division of short amplicon copy number by long amplicon copy number (66 by/500 bp) indicates whether the amount of detected short or long amplicons changes over time in a similar way. A decrease of this ratio implies a stronger release of longer rather than of shorter DNA molecules and can be interpreted as release of high molecular weight genomic DNA from blood cells.
On day 0, day 3 and day 6, replicates were processed as follows. […] The collected plasma was centrifuged at 16,000×g for 10 minutes at 4° C. The cleared plasma fraction was collected and the extracellular nucleic acids were isolated using the QIAamp Circulating nucleic acid kit (1 ml input material, 60 μl elution volume). […] Values that are close to 1 imply preserved levels of ccfDNA. The higher the value, the less stabilization is achieved.

whole blood samples [5] = assay: DNA size distribution by chip gel electrophoresis of DNA isolated from plasma of stored whole blood; format: cell-based; settings: for genomic DNA release/fragmentation: day 7, RT; for ladder-like pattern of DNA bands (release/fragmentation of genomic DNA): 20 μM end concentration in 10 ml blood, stored at RT, day 3 and day 7, vs DMSO control and K2E blood
Method: as §1, with “samples. The samples were processed according to the following protocols, where applicable (for details, see also the specific examples in the results section):” for “samples.”
To separate the blood plasma from the whole blood, the blood samples were centrifuged for 15 min at 5000 rpm, and the obtained plasma samples were again centrifuged for 10 min at 16.000×g at 4° C.
as §2
4.1. Measurement of the blood cell stability/DNA release by the determination of DNA size distribution using a chip gel electrophoresis (2100 Bioanalyzer; Agilent Technologies; Inc., USA) according to manufacturer's instruction (see handbook Agilent DNA 7500 and DNA 12000 Kit Guide), but 1.5 μl instead of 1 μl sample were transferred to the wells.
The eluted circulating cell-free DNA was separated by size using chip gel electrophoresis (for details on the method see above, I, 4.1). […] The DMSO control and the K2E blood (not treated according to the teachings of the present invention) show the same ladder-like pattern of bands. This pattern occurs in samples where apoptosis takes place. During apoptosis, endonucleases degrade genomic DNA at inter-nucleosomal linker regions and produce DNA fragments of circa 180 bp or multiples of 180 bp. Thus, apoptosis occurs in samples which show a clear ladder-like pattern. Furthermore, the strength (darkness) of the pattern is decisive. The darker the bands, the more genomic DNA was released from the cells and thus contaminates the extracellular nucleic acid population.

caspase-8 = caspase-8 (Homo sapiens, UniProt Q14790); settings: cited from earlier work
caspase-8, sequence (Q14790 217-479, species assumed): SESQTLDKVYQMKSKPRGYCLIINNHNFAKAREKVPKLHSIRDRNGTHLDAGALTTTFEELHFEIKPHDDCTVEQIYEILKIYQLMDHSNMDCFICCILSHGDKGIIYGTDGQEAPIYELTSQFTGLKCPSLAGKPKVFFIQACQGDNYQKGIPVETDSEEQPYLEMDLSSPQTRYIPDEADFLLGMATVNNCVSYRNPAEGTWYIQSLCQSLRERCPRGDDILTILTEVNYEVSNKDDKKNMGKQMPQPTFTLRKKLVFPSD

[6] = biological target: T1, human recombinant caspase-1 (Homo sapiens, UniProt P29466); settings: cited from earlier work
T1 sequence (P29466 120-404): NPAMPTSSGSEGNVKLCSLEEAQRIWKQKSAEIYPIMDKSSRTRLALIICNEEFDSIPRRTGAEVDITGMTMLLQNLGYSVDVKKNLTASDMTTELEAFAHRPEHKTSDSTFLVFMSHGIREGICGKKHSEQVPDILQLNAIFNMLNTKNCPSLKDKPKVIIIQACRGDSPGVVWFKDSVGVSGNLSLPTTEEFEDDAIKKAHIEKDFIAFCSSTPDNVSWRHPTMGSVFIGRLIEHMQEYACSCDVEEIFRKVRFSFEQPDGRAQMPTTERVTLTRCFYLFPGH

fragmentin 2 = biological target: T2, fragmentin 2 (Rattus norvegicus, UniProt P18291); settings: read-out: ID50 (the source's name); cited from earlier work
T2 sequence (P18291 21-248): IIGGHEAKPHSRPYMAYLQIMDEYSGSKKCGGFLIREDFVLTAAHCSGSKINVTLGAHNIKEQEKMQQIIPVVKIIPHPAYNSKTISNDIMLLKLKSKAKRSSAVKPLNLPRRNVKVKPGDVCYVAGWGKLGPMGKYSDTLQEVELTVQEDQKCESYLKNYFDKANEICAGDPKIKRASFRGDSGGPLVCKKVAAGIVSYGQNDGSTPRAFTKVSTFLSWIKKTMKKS

Bax-mediated apoptosis = settings: cited from earlier work
[7] = biological target: Bax (Bcl-2-associated X protein) (Homo sapiens, UniProt Q07812); settings: cited from earlier work
Bax (Bcl-2-associated X protein), sequence (Q07812 whole entry): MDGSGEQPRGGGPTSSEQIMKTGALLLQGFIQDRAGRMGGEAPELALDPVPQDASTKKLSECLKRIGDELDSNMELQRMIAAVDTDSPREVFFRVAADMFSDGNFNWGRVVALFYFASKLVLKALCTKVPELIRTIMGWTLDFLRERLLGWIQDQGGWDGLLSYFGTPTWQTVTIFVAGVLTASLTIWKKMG

anthrax lethal factor, sequence (P15917 34-809 limits assumed): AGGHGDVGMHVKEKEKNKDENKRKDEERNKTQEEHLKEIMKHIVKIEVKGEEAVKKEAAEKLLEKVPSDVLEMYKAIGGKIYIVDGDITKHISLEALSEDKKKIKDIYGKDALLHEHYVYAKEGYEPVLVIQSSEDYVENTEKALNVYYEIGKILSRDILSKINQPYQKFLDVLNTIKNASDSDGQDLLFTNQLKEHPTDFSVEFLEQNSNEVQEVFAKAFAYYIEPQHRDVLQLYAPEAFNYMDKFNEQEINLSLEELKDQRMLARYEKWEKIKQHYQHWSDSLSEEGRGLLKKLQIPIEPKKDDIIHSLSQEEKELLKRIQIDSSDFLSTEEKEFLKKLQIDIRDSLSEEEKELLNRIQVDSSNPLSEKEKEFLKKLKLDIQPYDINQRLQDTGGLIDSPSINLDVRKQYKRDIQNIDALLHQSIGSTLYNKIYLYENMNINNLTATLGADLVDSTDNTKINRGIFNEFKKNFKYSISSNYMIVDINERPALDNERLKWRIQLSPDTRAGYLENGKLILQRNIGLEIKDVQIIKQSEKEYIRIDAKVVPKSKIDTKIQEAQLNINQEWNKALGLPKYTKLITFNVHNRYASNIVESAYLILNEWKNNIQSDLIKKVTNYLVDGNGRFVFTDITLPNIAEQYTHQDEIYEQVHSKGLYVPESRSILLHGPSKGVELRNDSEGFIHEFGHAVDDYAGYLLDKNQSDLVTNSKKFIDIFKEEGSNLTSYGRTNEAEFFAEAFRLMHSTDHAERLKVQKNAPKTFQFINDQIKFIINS

Question: For FC(F)(F)c1cccc(-c2csc(C3COc4ccccc4O3)n2)c1 (stereo not drawn) [Caspase Inhibitor X], which effect on activity (anthrax lethal factor) is on record?
Answer: assisted cleavage of BID, a proapoptotic protein. Weakly affects

Question: For O=C(C=Cc1ccc(C=CC(=O)Nc2ccc(C3=NCCN3)cc2)cc1)Nc1ccc(C2=NCCN2)cc1 [GW 4869], which “protection against cell death” value (MCF7 breast cancer cells) is on record?
Answer: specific PLC. Reported to offer complete protection against TNF-α

Question: For COc1cc(-n2c(=S)[nH]c3ccccc3c2=O)c(Cl)cc1Cl [Mdivi-1, 3-(2,4-Dichloro-5-methoxyphenyl)-2,3-dihydro-2-thioxo-4(1H)-quinazolinone], which IC50 (mitochondrial division) is on record?
Answer: ~10000 nM

Question: Which “half-life longer than Pifithrin-α” value [1] does the source give for O=[N+]([O-])c1ccc(-c2cn3c4c(sc3n2)CCCC4)cc1 [Pifithrin-α, p-Nitro, Cyclic] here?
Answer: 50%

Question: And the “potency relative to Pifithrin-α” value [2]?
Answer: A cell-permeable p53 inhibitor that exhibits 10-fold higher potency

Question: What about the EC50 [2] of the same compound?
Answer: 30 nM

Question: Which results are given for N=c1sc2c(n1CC(=O)c1ccc([N+](=O)[O-])cc1)CCCC2 [Pifithrin-α, p-Nitro]?
Answer: potency relative to Pifithrin-α [3]: 100-fold more potent than Pifithrin-α when adminstered in rats in; EC50 [2]: 300 nM

Question: For CC(C)C(NC(=O)c1ccc2ccccc2n1)C(=O)NC(CC(=O)O)C(=O)COc1c(F)cccc1F (stereo not drawn) [Q-VD-OPh, Quinoline-Val-Asp-CH2-OPH], which “increase of genomic DNA in the plasma (18S DNA duplex assay)” value (whole blood samples [4]; 1 μM in combination with 21 mM glucose) is on record?
Answer: only a minor increase of genomic DNA

Question: What about the “increase of genomic DNA in the plasma (18S DNA duplex assay)” value (whole blood samples [4]; 4 μM in combination with 21 mM glucose) of the same compound?
Answer: ≤ 4 fold

Question: And the “x-fold increase of ribosomal 18S DNA in plasma” value (whole blood samples [4])?
Answer: reduced increase of DNA

Question: What about the “genomic DNA release/fragmentation” value (whole blood samples [5]; 1 μM caspase inhibitor with 21.4 mM glucose) of the same compound?
Answer: significantly reduced the genomic DNA release/fragmentation

Question: And the “genomic DNA release/fragmentation” value (whole blood samples [5]; 4 μM caspase inhibitor with 21.4 mM glucose, compared with 1 μM)?
Answer: improved

Question: And the “ladder-like pattern of DNA bands (release/fragmentation of genomic DNA)” value (whole blood samples [5])?
Answer: significantly reduced ladder-like patterns

Question: What does the source list for COC(=O)C[C@H](NC(=O)[C@H](C)NC(=O)[C@@H](NC(=O)OCc1ccccc1)C(C)C)C(=O)CF [Z-Val-Ala-Asp(OMe)-FMK] (Cbz-Val-Ala-Asp(OMe)-CH2F)?
Answer: x-fold increase of ribosomal 18S DNA in plasma (whole blood samples [4]): more prominent on day 7; ladder-like pattern of DNA bands (release/fragmentation of genomic DNA) (whole blood samples [5]): reduced ladder-like pattern

Question: With O[C@H]1[C@H](O)[C@@H](O)[C@H](O)[C@@H](O)[C@H]1O [inositol, Cyclohexane-1,2,3,4,5,6-geksol] as the compound, how does the “relative change of ccfDNA level (day X copies/day 0 copies)” value (whole blood samples [4]; concentrations of for example 0.05 M, room temperature up to six days) read?
Answer: suitable alternatives

Question: For OC[C@@H](O)[C@@H](O[C@H]1O[C@H](CO)[C@@H](O)[C@H](O)[C@H]1O)[C@H](O)[C@@H](O)CO [maltitol, 4-O-α-D-Glucopyranosyl-D-glucitol], which “relative change of ccfDNA level (day X copies/day 0 copies)” value (whole blood samples [4]; concentrations ≤0.01M, room temperature up to six days) is on record?
Answer: suitable alternatives

Question: With OCC(O)C(O)C(O)C(O)CO (stereo not drawn) [mannitol, Hexane-1,2,3,4,5,6-hexol] as the compound, how does the “relative change of ccfDNA level (day X copies/day 0 copies)” value (whole blood samples [4]; 0.1, 0.05, 0.01 M tested, room temperature) read?
Answer: stabilization effects over 3 days

Question: With Ac-IETD-aldehyde as the compound, how does the Ki (caspase-8) read?
Answer: 1 nM

Question: For “Ac-Tyr-Val-Ala-Asp-CHO [Caspase-1 Inhibitor I]”, which Ki [6] is on record?
Answer: 0.2 nM

Question: Which IC50 (fragmentin 2) does the source give for “Cbz-Ala-Ala-Asp-CH2Cl [Granzyme B Inhibitor I]” here?
Answer: 300 nM

Question: With “H-Val-Pro-Met-Leu-Lys-OH (H-VPMLK-OH) [Bax-Inhibiting Peptide, V5]” as the compound, how does the “effective concentration for Bax-mediated apoptosis” value (Bax-mediated apoptosis) read?
Answer: mediated apoptosis (~50-200 μM). Also effectively blocks caspase-

Question: For “Humanin, Human, Synthetic: A 24-residue anti-apoptotic peptide”, which Kd [7] is on record?
Answer: ~2 nM

— patent US10676780B2, “Stabilisation and isolation of extracellular nucleic acids” (QIAGEN GmbH, priority 2011, dated 2020)
